According to US20210269434A1, “TRICYCLIC COMPOUNDS AS INHIBITORS OF KRAS” (Incyte Corporation, priority 2020, published 2021):

What was measured:
[1] = system: MIA PaCa-2 (KRAS G12C) cells; assay: Cellular pERK HTRF assay (KRAS_G12C pERK); assay type: cell-based, human; settings: Homo sapiens, MIA PaCa-2, 4 hours incubation, read-out: G12C_pERK
Method: Example C: Cellular pERK HTRF Assay
MIA PaCa-2 (KRAS G12C; ATCC® CRL-1420), A427 (KRAS G12D; ATCC® HTB53), HPAF-II (KRAS G12D; ATCC® CRL-1997) and NCI-H838 (KRAS WT; ATCC® CRL-5844) cells are purchased from ATCC and maintained in RPMI 1640 media supplemented with 10% FBS (Gibco/Life Technologies). The cells are plated at 5000 cells per well (8 uL) into Greiner 384-well low volume, flat-bottom, tissue culture treated white plates and incubated overnight at 37° C., 5% CO2. The next morning, test compound stock solutions are diluted in media at 3× the final concentration, and 4 uL are added to the cells. The plate is mixed by gentle rotation for 30 seconds (250 rpm) at room temperature. The cells are incubated with the KRAS G12C and G12D compounds for 4 hours or 2 hours respectively at 37° C., 5% CO2.
4 uL of 4× lysis buffer with blocking reagent (1:25) (Cisbio) are added to each well and plates are rotated gently (300 rpm) for 30 minutes at room temperature. 4 uL per well of Cisbio anti Phospho-ERK 1/2 d2 is mixed with anti Phospho-ERK 1/2 Cryptate (1:1) are added to each well, mixed by rotation and incubated overnight in the dark at room temperature. Plates are read on the Pherastar plate reader at 665 nm and 620 nm wavelengths. IC50 determination is performed by fitting the curve of inhibitor percent inhibition versus the log of the inhibitor concentration using the GraphPad Prism 7 software.

[2] = target: KRAS G12C (Homo sapiens, UniProt P01116, G12C); assay: GDP-GTP exchange assay (KRAS_G12C exchange); assay type: biochemical; settings: bodipy-GDP loaded KRAS G12C 2.5 nM, SOS1 150 nM, GppNHp; 2 hours pre-incubation, 2 hours reaction; read-out: G12C_exchange
Chain of KRAS G12C (P01116 1-188 isoform P01116-2 G12C): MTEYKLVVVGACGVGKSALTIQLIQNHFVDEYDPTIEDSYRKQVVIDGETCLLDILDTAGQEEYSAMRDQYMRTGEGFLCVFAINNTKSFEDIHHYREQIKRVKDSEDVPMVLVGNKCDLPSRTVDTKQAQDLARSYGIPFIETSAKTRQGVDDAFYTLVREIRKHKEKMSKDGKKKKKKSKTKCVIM
Method: Example A. GDP-GTP Exchange Assay
The inhibitor potency of the exemplified compounds was determined in a fluorescence based guanine nucleotide exchange assay, which measures the exchange of bodipy-GDP (fluorescently labeled GDP) for GppNHp (Non-hydrolyzable GTP analog) to generate the active state of KRAS in the presence of SOS1 (guanine nucleotide exchange factor). Inhibitors were serially diluted in DMSO and a volume of 0.1 μL was transferred to the wells of a black low volume 384-well plate. 5 μL/well volume of bodipy-loaded KRAS G12C diluted to 5 nM in assay buffer (25 mM Hepes pH 7.5, 50 mM NaCl, 10 mM MgCl2 and 0.01% Brij-35) was added to the plate and pre-incubated with inhibitor for 2 hours at ambient temperature. Appropriate controls (enzyme with no inhibitor or with a G12C inhibitor (AMG-510)) were included on the plate. The exchange was initiated by the addition of a 5 μL/well volume containing 1 mM GppNHp and 300 nM SOS1 in assay buffer. The 10 μL/well reaction concentration of the bodipy-loaded KRAS G12C, GppNHp, and SOS1 were 2.5 nM, 500 uM, and 150 nM, respectively. The reaction plates were incubated at ambient temperature for 2 hours, a time estimated for complete GDP-GTP exchange in the absence of inhibitor. For the KRAS G12D and G12V mutants, similar guanine nucleotide exchange assays were used with 2.5 nM as final concentration for the bodipy loaded KRAS proteins and with 4 hours and 3 hours incubation after adding GppNHp-SOS1 mixture for G12D and G12V respectively. A cyclic peptide described to selectively bind G12D mutant (Sakamoto et al., BBRC 484.3 (2017), 605-611) or internal compounds with confirmed binding were used as positive controls in the assay plates. Fluorescence intensities were measured on a PheraStar plate reader instrument (BMG Labtech) with excitation at 485 nm and emission at 520 nm.
Either GraphPad prism or XLfit was used to analyze the data. The IC50 values were derived by fitting the data to a four parameter logistic equation producing a sigmoidal dose-response curve with a variable Hill coefficient. Prism equation: Y=Bottom+(Top−Bottom)/(1+10^((Log lC50−X)*Hill slope)); XLfit equation: Y=(A+((B−A)/(1+((X/C)^D)))) where X is the logarithm of inhibitor concentration and Y is the response.

Row | Compound | IC50 [1] [nM] | IC50 [2] [nM]
1 | COC/C=C/C(=O)N1CC[C@H](n2nnc3c(OC[C@@H]4CCCN4C)nc4c(F)c(-c5c(C)c(Cl)cc6[nH]ncc56)c(Cl)cc4c32)C[C@H]1CC#N (single isomer, unassigned) [Example 191a] | ≤ 100 | ≤ 100
2 | C=CC(=O)N1CC[C@H](n2nnc3c(N4CC(C)(N(C)C)C4)nc4c(F)c(-c5c(C)c(Cl)cc6[nH]ncc56)c(C)cc4c32)C[C@H]1CC#N (single isomer, unassigned) [Example 193a] | ≤ 100 | ≤ 100
3 | CC#CC(=O)N1CC[C@H](n2nnc3c(N4CC(C)(N(C)C)C4)nc4c(F)c(-c5c(C)c(Cl)cc6[nH]ncc56)c(C)cc4c32)C[C@H]1CC#N (single isomer, unassigned) [Example 194a] | ≤ 100 | ≤ 100
4 | C=CC(=O)N1CC[C@H](n2nnc3c(N4CC(C)(N(C)C)C4)nc4c(F)c(-c5c(C)c(C)cc6[nH]ncc56)c(C)cc4c32)C[C@H]1CC#N (single isomer, unassigned) [Example 198a] | ≤ 100 | ≤ 100
5 | C=CC(=O)N1CC[C@H](n2nnc3c(N4CC(C)(N(C)C)C4)nc4c(F)c(-c5c(C)ccc6[nH]ncc56)c(C)cc4c32)C[C@H]1CC#N (single isomer, unassigned) [Example 200a] | ≤ 100 | ≤ 100
6 | CC#CC(=O)N1CC[C@H](n2nnc3c(OC[C@@H]4CCCN4C)nc4c(F)c(-c5cccnc5C(F)(F)F)c(C)cc4c32)C[C@H]1CC#N (single isomer, unassigned) [Example 205a] | ≤ 100 | ≤ 100
7 | C=CC(=O)N1CCC(n2cnc3c(N4CC(C)(N(C)C)C4)nc4c(F)c(-c5cccc6cccc(Cl)c56)c(Cl)cc4c32)C[C@H]1CC#N (single isomer, unassigned) [Example 212a] | ≤ 100 | ≤ 100
8 | CC#CC(=O)N1CCC(n2cnc3c(N4CC(C)(N(C)C)C4)nc4c(F)c(-c5cccc6cccc(Cl)c56)c(Cl)cc4c32)C[C@H]1CC#N (single isomer, unassigned) [Example 213b] | ≤ 100 | ≤ 100
9 | C=CC(=O)N1CCC(n2cnc3c(N4CC(N(C)CC)C4)nc4c(F)c(-c5cccc6cccc(Cl)c56)c(Cl)cc4c32)C[C@H]1CC#N (single isomer, unassigned) [Example 214b] | ≤ 100 | ≤ 100
10 | C=CC(=O)N1CCC(n2cnc3c(OC[C@@H]4CCCN4C)nc4c(F)c(-c5cccc6cccc(Cl)c56)c(Cl)cc4c32)C[C@H]1CC#N (single isomer, unassigned) [Example 215b] | ≤ 100 | ≤ 100
11 | C=CC(=O)N1CCC(n2nnc3c(N4CC(C)(N(C)C)C4)nc4c(F)c(-c5cccc6cccc(Cl)c56)c(Cl)cc4c32)C[C@H]1CC#N (single isomer, unassigned) [Example 216a] | ≤ 100 | ≤ 100
12 | CC#CC(=O)N1CCC(n2nnc3c(N4CC(C)(N(C)C)C4)nc4c(F)c(-c5cccc6cccc(Cl)c56)c(Cl)cc4c32)C[C@H]1CC#N (single isomer, unassigned) [Example 218a] | ≤ 100 | ≤ 100
13 | C=CC(=O)N1CCC(n2nnc3c(N4CC(N(C)CC)C4)nc4c(F)c(-c5cccc6cccc(Cl)c56)c(Cl)cc4c32)C[C@H]1CC#N (single isomer, unassigned) [Example 219a] | ≤ 100 | ≤ 100
14 | C=CC(=O)N1CCC(n2nnc3c(N4CC(C)(N(C)C)C4)nc4c(F)c(-c5cccc6cccc(C#N)c56)c(Cl)cc4c32)C[C@H]1CC#N (single isomer, unassigned) [Example 220a] | ≤ 100 | ≤ 100
15 | C=CC(=O)N1CCC(n2cnc3c(N4CC(C)(N(C)C)C4)nc4c(F)c(-c5cccc6cccc(Cl)c56)c(C)cc4c32)C[C@H]1CC#N (single isomer, unassigned) [Example 221a] | ≤ 100 | ≤ 100
16 | C=CC(=O)N1CCC(n2cnc3c(N4CC(N(C)CC)C4)nc4c(F)c(-c5cccc6cccc(Cl)c56)c(C)cc4c32)C[C@H]1CC#N (single isomer, unassigned) [Example 223a] | ≤ 100 | ≤ 100
17 | CC#CC(=O)N1CCC(n2cnc3c(N4CC(N(C)CC)C4)nc4c(F)c(-c5cccc6cccc(Cl)c56)c(C)cc4c32)C[C@H]1CC#N (single isomer, unassigned) [Example 224a] | ≤ 100 | ≤ 100
18 | CN(C)C/C=C/C(=O)N1CC[C@H](n2cnc3c(N4CC(N(C)C)C4)nc4c(F)c(-c5ccc(F)c6cccnc56)c(C(F)(F)F)cc4c32)C[C@H]1CC#N (single isomer, unassigned) [Example 230a] | ≤ 100 | ≤ 100
19 | CC#CC(=O)N1CC[C@H](n2nnc3c(N4CC(N(C)C)C4)nc4c(F)c(-c5c(C)c(Cl)cc6[nH]ncc56)c(CCC#N)cc4c32)C[C@H]1CC#N (single isomer, unassigned) [Example 231a] | ≤ 100 | ≤ 100
20 | C=CC(=O)N1CC[C@H](n2nnc3c(N4CC(C)(N(C)C)C4)nc4c(F)c(-c5ccc(F)c6cccnc56)c(C(F)(F)F)cc4c32)C[C@H]1CC#N (single isomer, unassigned) [Example 233a] | ≤ 100 | ≤ 100
21 | C=CC(=O)N1CC[C@H](n2nnc3c(N4CC(C)(N(C)C)C4)nc4c(F)c(-c5cccc(C)c5Cl)c(C(F)(F)F)cc4c32)C[C@H]1CC#N (single isomer, unassigned) [Example 235a] | ≤ 100 | ≤ 100
22 | C=CC(=O)N1CC[C@H](n2nnc3c(N4CC(C)(N(C)C)C4)nc4c(F)c(-c5cccc(Cl)c5C)c(C(F)(F)F)cc4c32)C[C@H]1CC#N (single isomer, unassigned) [Example 238a] | ≤ 100 | ≤ 100
23 | CC#CC(=O)N1CC[C@H](n2nnc3c(OC[C@@H]4CCCN4C)nc4c(F)c(-c5cccc(C)c5Cl)c(CCC#N)cc4c32)C[C@H]1CC#N (single isomer, unassigned) [Example 242a] | ≤ 100 | ≤ 100
24 | CC#CC(=O)N1CC[C@H](n2nnc3c(N4CC(C)(N(C)C)C4)nc4c(F)c(-c5cccc(Cl)c5OC)c(C(F)(F)F)cc4c32)C[C@H]1CC#N (single isomer, unassigned) [Example 243b] | ≤ 100 | ≤ 100
25 | CC#CC(=O)N1CC[C@H](n2nnc3c(N4CC(C)(N(C)C)C4)nc4c(F)c(-c5cccc(C)c5OC)c(C(F)(F)F)cc4c32)C[C@H]1CC#N (single isomer, unassigned) [Example 245a] | ≤ 100 | ≤ 100
26 | C=CC(=O)N1CC[C@H](n2cnc3c(N4CC(N(C)C)C4)nc4c(F)c(-c5c(C)c(Cl)cc6[nH]ncc56)c(Cl)cc4c32)C[C@H]1CC#N (single isomer, unassigned) [Example 267a] | ≤ 100 | ≤ 100
27 | CC#CC(=O)N1CC[C@H](n2nnc3c(OC[C@@H]4CCCN4C)nc4c(Cl)c(-c5ccc(F)c6cccnc56)c(Cl)cc4c32)C[C@H]1CC#N (single isomer, unassigned) [Example 270a] | ≤ 100 | ≤ 100
28 | C=CC(=O)N1CC[C@H](n2nnc3c(N4CC(N(C)C)C4)nc4c(Cl)c(-c5ccc(F)c6cccnc56)c(Cl)cc4c32)C[C@H]1CC#N (single isomer, unassigned) [Example 271a] | ≤ 100 | ≤ 100
